Results on 2 molecules are retold here after US20100015126A1, “Methods of Binding of Cross-Beta Structures By Chaperones” (priority 2006, published 2010).

Test [1] concerns the target T1, recombinant human HSP90beta (Homo sapiens, UniProt P08238).
T1 construct: purchased Dr. S. Rüdiger, Cellular Protein Chemistry, Utrecht University
As to the kind of experiment: Competition ELISA: HSP90 binding under influence of crossbeta binding compounds and geldanamycin. The following applies: 20 μg/ml HSP90, geldanamycin 10 μM; for Binding of HSP90 to coated Aβ25-35 under influence of compound: sRAGE 79 μg/ml, HSA 10 μM. The procedure:
Binding of chaperones to immobilized (misfolded) protein ligands was determined using an enzyme linked immuno sorbent assay (ELISA) approach. For this purpose 50 μl/well of potential ligands at indicated concentrations or coat buffer only for control and background measurement purposes, were coated overnight at 4° C. or coated for 1 h at room temperature, with motion, in 50 mM NaHCO3 pH 9.6 (coat buffer). In general, ligands were coated at 5 μg/ml, unless stated otherwise. […] Native haemoglobin (Sigma-Aldrich, H7379), albumin, IgIV Gammagard and ovalbumin controls were prepared from lyophilized stocks. The controls were prepared by dissolving lyophilized proteins at 1 mg/ml in PBS upon resuspending by pipetting, followed by a 30 minutes period at the roller device, at room temperature. The protein solutions were centrifuged for 10 minutes at 16,000*g and diluted in coat buffer. […] Plates were washed three times and incubated in triplicate with indicated chaperone dilution series, at 50 μl/well, for 1 h at room temperature, with constant motion. For HSP90, 5 mM DTT is incorporated in the binding buffer (PBS/0.1% Tween20) to avoid unwanted disulfide bond formation of the HSP90. […] After four wash cycles, secondary antibodies were added to the wells when required, 50 μl/well, for 45′ at room temperature, with motion. RAMPO and SWARPO were used at 3000 times dilution. […] In a second experiment with more immobilized misfolded proteins and controls, the detection of bound HSP90 with the mix of two anti-HSP90 antibodies was achieved by mixing 1:1500 SWARPO with 1:3000 RAMPO. After 5 washes with wash buffer followed by two washes with PBS, binding of antibodies was assessed. […] The reaction was stopped after 5 minutes with 1% H2SO4 in H2O. Plates were read at 450 nm. Triplicates were averaged and standard deviations calculated. Background signals obtained with buffer-coated wells were subtracted (binding of primary antibody to empty wells), as well as background signals obtained with ligand-coated wells in which the chaperones were omitted (binding of primary and secondary antibody to coated ligands). Subsequently, sub-optimal concentrations of chaperones for binding to misfolded protein ligands are determined, and these concentrations are used for inhibition studies.

Test [2] concerns the target T2, Escherichia coli HSP70 family member DnaK (Escherichia coli, UniProt P0A6Y8).
T2 construct: purchased Stressgen (Ann Arbor, Mich., USA) SPP-630
Briefly: Competition ELISA: DnaK binding under influence of ThT and Congo red. As to conditions: 20 μg/ml DnaK; 1 mM dye. The method, then: Binding of chaperones to immobilized (misfolded) protein ligands was determined using an enzyme linked immuno sorbent assay (ELISA) approach. For this purpose 50 μl/well of potential ligands at indicated concentrations or coat buffer only for control and background measurement purposes, were coated overnight at 4° C. or coated for 1 h at room temperature, with motion, in 50 mM NaHCO3 pH 9.6 (coat buffer). In general, ligands were coated at 5 μg/ml, unless stated otherwise. For example, BiP binding peptides 6BB# and oxLDL were coated at 50 μg/ml. Native haemoglobin (Sigma-Aldrich, H7379), albumin, IgIV Gammagard and ovalbumin controls were prepared from lyophilized stocks. The controls were prepared by dissolving lyophilized proteins at 1 mg/ml in PBS upon resuspending by pipetting, followed by a 30 minutes period at the roller device, at room temperature. The protein solutions were centrifuged for 10 minutes at 16,000*g and diluted in coat buffer. After coating the plates were washed at least three times with 50 mM Tris-HCl pH 7.3, 150 mM NaCl, 0.1% v/v Tween20, and blocked with Blocking reagent (Roche Diagnostics, Almere, The Netherlands; 11112589001), for 1 h at room temperature, with motion. Plates were washed three times and incubated in triplicate with indicated chaperone dilution series, at 50 μl/well, for 1 h at room temperature, with constant motion. For HSP90, 5 mM DTT is incorporated in the binding buffer (PBS/0.1% Tween20) to avoid unwanted disulfide bond formation of the HSP90. Plates were washed three times and incubated with anti-FLAG antibody (mouse antibody, M2, peroxidase conjugate; Sigma, A-8592) for BiP-FLAG-His, anti-His-tag antibody (Mouse Monoclonal Antibody, Cat. No. 70796, Novagen [0.2 mg/ml]) for HSP60, a 1:1 mix of 500-fold diluted anti-HSP90beta antibodies (Stressgen, SPA-643 [mouse monoclonal IgM], SPA-646 [rabbit polyclonal]) for HSP90 and an anti-DnaK antibody (Stressgen, 023SPA-880D [mouse monoclonal antibody]) for DnaK. After four wash cycles, secondary antibodies were added to the wells when required, 50 μl/well, for 45′ at room temperature, with motion. RAMPO and SWARPO were used at 3000 times dilution. […] In a second experiment with more immobilized misfolded proteins and controls, the detection of bound HSP90 with the mix of two anti-HSP90 antibodies was achieved by mixing 1:1500 SWARPO with 1:3000 RAMPO. After 5 washes with wash buffer followed by two washes with PBS, binding of antibodies was assessed. […] Plates were read at 450 nm. Triplicates were averaged and standard deviations calculated. […] Subsequently, sub-optimal concentrations of chaperones for binding to misfolded protein ligands are determined, and these concentrations are used for inhibition studies. […]

T2 sequence (P0A6Y8 whole entry): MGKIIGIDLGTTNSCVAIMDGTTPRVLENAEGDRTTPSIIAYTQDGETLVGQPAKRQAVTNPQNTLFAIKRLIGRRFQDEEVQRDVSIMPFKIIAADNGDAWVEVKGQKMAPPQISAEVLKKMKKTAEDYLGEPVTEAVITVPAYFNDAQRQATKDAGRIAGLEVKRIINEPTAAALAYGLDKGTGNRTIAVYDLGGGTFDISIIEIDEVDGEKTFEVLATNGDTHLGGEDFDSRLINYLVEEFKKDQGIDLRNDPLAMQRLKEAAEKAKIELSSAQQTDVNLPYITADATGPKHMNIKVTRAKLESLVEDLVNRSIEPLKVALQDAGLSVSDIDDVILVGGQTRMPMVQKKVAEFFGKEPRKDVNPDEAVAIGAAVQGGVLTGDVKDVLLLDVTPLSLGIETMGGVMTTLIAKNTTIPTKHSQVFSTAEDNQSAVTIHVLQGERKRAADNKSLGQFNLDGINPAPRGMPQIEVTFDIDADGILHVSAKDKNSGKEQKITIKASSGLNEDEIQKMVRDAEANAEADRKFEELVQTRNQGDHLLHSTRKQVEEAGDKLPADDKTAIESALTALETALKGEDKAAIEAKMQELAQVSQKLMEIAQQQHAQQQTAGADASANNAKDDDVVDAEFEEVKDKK
T1 sequence (P08238 whole entry): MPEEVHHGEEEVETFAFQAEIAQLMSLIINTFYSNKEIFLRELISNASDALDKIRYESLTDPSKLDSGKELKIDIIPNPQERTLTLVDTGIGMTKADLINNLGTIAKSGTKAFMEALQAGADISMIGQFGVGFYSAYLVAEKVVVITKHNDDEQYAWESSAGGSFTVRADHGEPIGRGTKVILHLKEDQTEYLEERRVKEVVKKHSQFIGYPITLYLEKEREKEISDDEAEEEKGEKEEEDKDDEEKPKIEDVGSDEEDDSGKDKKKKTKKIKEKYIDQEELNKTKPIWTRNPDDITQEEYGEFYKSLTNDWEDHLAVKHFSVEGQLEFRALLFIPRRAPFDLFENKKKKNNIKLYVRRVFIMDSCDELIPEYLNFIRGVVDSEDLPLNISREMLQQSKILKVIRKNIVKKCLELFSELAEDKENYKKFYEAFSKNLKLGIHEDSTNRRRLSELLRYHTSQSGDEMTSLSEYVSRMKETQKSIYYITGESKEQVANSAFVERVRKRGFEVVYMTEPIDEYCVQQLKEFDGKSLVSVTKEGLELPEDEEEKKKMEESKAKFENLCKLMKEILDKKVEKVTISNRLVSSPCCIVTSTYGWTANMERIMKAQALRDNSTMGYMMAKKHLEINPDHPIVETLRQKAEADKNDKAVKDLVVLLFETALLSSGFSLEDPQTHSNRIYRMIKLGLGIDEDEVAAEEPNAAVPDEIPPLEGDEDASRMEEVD

In the case of `Nc1c(/N=N/c2ccc(-c3ccc(/N=N/c4cc(S(=O)(=O)O)c5ccccc5c4N)cc3)cc2)cc(S(=O)(=O)O)c2ccccc12` [Congo red], in test [1], the “Binding of HSP90 to coated HbAGE under influence of compound” value was “inhibited” and the “Binding of HSP90 to coated Aβ25-35 under influence of compound” value is reported as “stimulatory activity”. Also, in test [2], the “Binding of DnaK to immobilized HbAGE under influence of compound” value is recorded as “inhibit” and the “Binding of DnaK to immobilized dIgIV-86 under influence of compound” value is on record as “inhibit”.
Consider `Cc1ccc2c(c1)sc(-c1ccc(N(C)C)cc1)[n+]2C.[Cl-]` [ThT, Thioflavin T], for which, in test [1], the “Binding of HSP90 to coated HbAGE under influence of compound” value is reported as “had no influence” and the “Binding of HSP90 to coated Aβ25-35 under influence of compound” value is on record as “stimulatory activity”. Moreover, in test [2], the “Binding of DnaK to immobilized HbAGE under influence of compound” value was “inhibit” and the “Binding of DnaK to immobilized dIgIV-86 under influence of compound” value is on record as “inhibit”.
